Patent EP1594520B1, “USE OF BRADYKININ-B2 RECEPTOR ANTAGONISTS FOR TREATING OSTEOARTHROSIS” (Sanofi-Aventis Deutschland GmbH, priority 2003, dated 2006)

System: SW1353 Zellen
Assay: MMP-3 release from IL-1 stimulated SW1353 chondrosarcoma cells (MMP3 ELISA of the culture supernatant)
Assay type: cell-based
Method: Für die Analyse der krankheitsmodifizierenden Wirkung von HOE140 in einem Knorpelrelevanten Zellkulturmodel wurde die MMP3 Expression in der Chondrosarcom Zellline SW1353 (ATCC: HTB 94) analysiert. Für die Versuche wurden SW1353 Zellen unter Standard Bedingungen (37°C, 5% CO2) in DMEM-Glutamax mit 10% Fötalem Kälberserum (FKS) in Plastikkulturflaschen kultiviert. Nach ab-trypsinieren der Zellen wurden 50.000 Zellen je well einer 96-well Flachboden Platte in Medium ohne FKS ausgesät und mit der Verbindung HOE140 im Inkubator vorinkubiert. […] Nach 24 Stunden Inkubation unter Standardbedingungen wurde der Zellkulturüberstand abgenommen, 5 Minuten zentrifugiert und bei -20 °C bis zur weiteren Analyse eingefroren. Die Analyse der MMP3 Expression in den Zellkulturüberständen erfolgt dann mittels eines kommerziellen MMP3 ELISA Testsystems (Amersham) nach Angaben des Herstellers. Parallel dazu wurde mit den verbleibenden Zellen ein WST-Zytotoxizitätstest durchgeführt. Dazu wurde das kommerzielle Testsystem der Firma Roche verwendet und die Messung nach Angaben des Herstellerprotokolls durchgeführt.
Die nachfolgende Tabelle 1 zeigt die Ergebnisse. Bradykinin erhöht die MMP3 Freisetzung um mehr als 30%. […] Tabelle 1 MMP-3 Freisetzung aus SW-Zellen

| Substance | MMP-3 Freisetzung MW (OD450nm) (IL1α + Bradykinin (0,1 µM) + 0,1 µM HOE140) | Relativwerte bezogen auf Ausgangswert (IL1α + Bradykinin (0,1 µM) + 0,1 µM HOE140, IL1α alone = 100) | MMP-3 Freisetzung MW (OD450nm) (IL1α + Bradykinin (0,1 µM) + 0,05 µM HOE140) | MMP-3 Freisetzung MW (OD450nm) (IL1α + Bradykinin (0,1 µM) + 0,5 µM HOE140) | Relativwerte bezogen auf Ausgangswert (IL1α + Bradykinin (0,1 µM) + 0,05 µM HOE140, IL1α alone = 100) | Relativwerte bezogen auf Ausgangswert (IL1α + Bradykinin (0,1 µM) + 0,5 µM HOE140, IL1α alone = 100) | MMP-3 Freisetzung MW (OD450nm) (IL1α + Bradykinin (0,1 µM) + 1 µM HOE140) | Relativwerte bezogen auf Ausgangswert (IL1α + Bradykinin (0,1 µM) + 1 µM HOE140, IL1α alone = 100) | Hemmung der durch Bradykinin erhöhten Freisetzung von MMP 3 (IL1α + Bradykinin (0,1 µM), 0,05 to 1 µM HOE140) | Erhöhung der MMP3 Freisetzung (Bradykinin added to IL1-stimulated SW cells) [%] | MMP-3 Freisetzung MW (OD450nm) (IL1α + Bradykinin (0,1 µM), no antagonist) | Relativwerte bezogen auf Ausgangswert (IL1α + Bradykinin (0,1 µM), no antagonist, IL1α (0,05 ng/ml) alone = 100) |
| --- | --- | --- | --- | --- | --- | --- | --- | --- | --- | --- | --- | --- |
| D-Arginyl-L-arginyl-L-prolyl-L-prolylglycyl-3-(2-thienyl)-L-alanyl-L-seryl-(3R)-1,2,3,4-tetrahydro-3-isochinolincarbonyl-(2S,3aS,7aS)-octahydro-1H-indol-2-carbonyl-L-arginin [HOE140] | 371 | 113,1 | 458 | 309 | 139,6 | 94,2 | 306 | 93,3 | dosis-abhängig gehemmt | – | – | – |
| Bradykinin: natürlich vorkommendes Nonapeptid, das einige pharmakologische Effekte aufweist, die zu Entzündungen und Schmerzen führen (RPPGFSPFR; Bradykinin; UniProt P01042 381-389, looked up) [reference compound] | – | – | – | – | – | – | – | – | – | > 30 | 433 | 132,0 |
